Data reported in PubChem BioAssay (NCI).
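Interpolation was linear, between the two tested concentrations surrounding the appropriate level; five concentrations were tested over 48 hours in 96-well plates. TGI marks complete inhibition of growth.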

Tests used:
Test in all cases: NCI tumour cell line growth inhibition, 48 h
KM20L2 colon = tested on: KM20L2 colon
SK-MEL-2 melanoma = tested on: SK-MEL-2 melanoma
HT29 colon = tested on: HT29 colon
SR leukemia = tested on: SR leukemia
SF-268 CNS = tested on: SF-268 CNS
HCT-15 colon = tested on: HCT-15 colon
RPMI-8226 leukemia = tested on: RPMI-8226 leukemia
IGROV1 ovarian = tested on: IGROV1 ovarian
CCRF-CEM leukemia = tested on: CCRF-CEM leukemia
A498 renal = tested on: A498 renal
K-562 leukemia = tested on: K-562 leukemia
HCC-2998 colon = tested on: HCC-2998 colon
DMS 273 small cell lung = tested on: DMS 273 small cell lung
NCI-H460 lung = tested on: NCI-H460 lung
SNB-75 CNS = tested on: SNB-75 CNS
OVCAR-4 ovarian = tested on: OVCAR-4 ovarian
UACC-62 melanoma = tested on: UACC-62 melanoma
SK-OV-3 ovarian = tested on: SK-OV-3 ovarian
OVCAR-8 ovarian = tested on: OVCAR-8 ovarian
ACHN renal = tested on: ACHN renal
SW-620 colon = tested on: SW-620 colon
SN12C renal = tested on: SN12C renal
786-0 renal = tested on: 786-0 renal
NCI-H522 lung = tested on: NCI-H522 lung
MOLT-4 leukemia = tested on: MOLT-4 leukemia
OVCAR-5 ovarian = tested on: OVCAR-5 ovarian
KM12 colon = tested on: KM12 colon
SF-295 CNS = tested on: SF-295 CNS
CAKI-1 renal = tested on: CAKI-1 renal
LOX IMVI melanoma = tested on: LOX IMVI melanoma
SNB-78 CNS = tested on: SNB-78 CNS
HOP-18 NSCLC = tested on: HOP-18 NSCLC
M14 melanoma = tested on: M14 melanoma
SF-539 CNS = tested on: SF-539 CNS
EKVX NSCLC = tested on: EKVX NSCLC
DMS 114 small cell lung = tested on: DMS 114 small cell lung
SK-MEL-28 melanoma = tested on: SK-MEL-28 melanoma
RXF 393 renal = tested on: RXF 393 renal
HL-60(TB) leukemia = tested on: HL-60(TB) leukemia
NCI-H23 lung = tested on: NCI-H23 lung
U251 CNS = tested on: U251 CNS
M19-MEL melanoma = tested on: M19-MEL melanoma
MALME-3M melanoma = tested on: MALME-3M melanoma
UO-31 renal = tested on: UO-31 renal
HOP-92 NSCLC = tested on: HOP-92 NSCLC
XF 498 CNS = tested on: XF 498 CNS
LXFL 529 NSCLC = tested on: LXFL 529 NSCLC
A549 NSCLC = tested on: A549 NSCLC
DLD-1 colon = tested on: DLD-1 colon
SNB-19 CNS = tested on: SNB-19 CNS
HCT-116 colon = tested on: HCT-116 colon
UACC-257 melanoma = tested on: UACC-257 melanoma
TK-10 renal = tested on: TK-10 renal
SK-MEL-5 melanoma = tested on: SK-MEL-5 melanoma
HOP-62 NSCLC = tested on: HOP-62 NSCLC
NCI-H226 lung = tested on: NCI-H226 lung
COLO 205 colon = tested on: COLO 205 colon
OVCAR-3 ovarian = tested on: OVCAR-3 ovarian

**Q.** For `CCCCCCCCCCCCNC(=S)OC`, which TGI (KM20L2 colon) is on record?
**A.** Its TGI is 30 µM.

**Q.** And the TGI (SK-MEL-2 melanoma)?
**A.** Its TGI is 31.1 µM.

**Q.** And the TGI (HT29 colon)?
**A.** The TGI was 32.8 µM.

**Q.** What about the TGI (SR leukemia) of the same compound?
**A.** The TGI was 17.9 µM.

**Q.** What about the TGI (SF-268 CNS) of the same compound?
**A.** Its TGI is 32.8 µM.

**Q.** And the TGI (HCT-15 colon)?
**A.** The TGI was 27.7 µM.

**Q.** And the TGI (RPMI-8226 leukemia)?
**A.** The TGI was 27.5 µM.

**Q.** What about the TGI (IGROV1 ovarian) of the same compound?
**A.** Its TGI is 24.3 µM.

**Q.** What about the TGI (CCRF-CEM leukemia) of the same compound?
**A.** The TGI was 33.3 µM.

**Q.** What about the TGI (A498 renal) of the same compound?
**A.** Its TGI is 31.6 µM.

**Q.** What about the TGI (K-562 leukemia) of the same compound?
**A.** Its TGI is 39.6 µM.

**Q.** What about the TGI (HCC-2998 colon) of the same compound?
**A.** The TGI was 32.9 µM.

**Q.** And the TGI (DMS 273 small cell lung)?
**A.** The TGI was 29.3 µM.

**Q.** What about the TGI (NCI-H460 lung) of the same compound?
**A.** The TGI was 31.2 µM.

**Q.** What about the TGI (SNB-75 CNS) of the same compound?
**A.** The TGI was 45 µM.

**Q.** What about the TGI (OVCAR-4 ovarian) of the same compound?
**A.** Its TGI is 38.6 µM.

**Q.** What about the TGI (UACC-62 melanoma) of the same compound?
**A.** Its TGI is 30.7 µM.

**Q.** What about the TGI (SK-OV-3 ovarian) of the same compound?
**A.** The TGI was 35 µM.

**Q.** What about the TGI (OVCAR-8 ovarian) of the same compound?
**A.** The TGI was 29.7 µM.

**Q.** What about the TGI (ACHN renal) of the same compound?
**A.** The TGI was 33 µM.

**Q.** And the TGI (SW-620 colon)?
**A.** The TGI was 30.2 µM.

**Q.** And the TGI (SN12C renal)?
**A.** The TGI was 27.3 µM.

**Q.** What about the TGI (786-0 renal) of the same compound?
**A.** Its TGI is 29.3 µM.

**Q.** What about the TGI (NCI-H522 lung) of the same compound?
**A.** The TGI was 26 µM.

**Q.** And the TGI (MOLT-4 leukemia)?
**A.** Its TGI is 9.43 µM.

**Q.** And the TGI (OVCAR-5 ovarian)?
**A.** Its TGI is 30.9 µM.

**Q.** And the TGI (KM12 colon)?
**A.** The TGI was 29.6 µM.

**Q.** What about the TGI (SF-295 CNS) of the same compound?
**A.** The TGI was 36 µM.

**Q.** What about the TGI (CAKI-1 renal) of the same compound?
**A.** The TGI was 28.3 µM.

**Q.** What about the TGI (LOX IMVI melanoma) of the same compound?
**A.** Its TGI is 28.7 µM.

**Q.** What about the TGI (SNB-78 CNS) of the same compound?
**A.** The TGI was 45.9 µM.

**Q.** And the TGI (HOP-18 NSCLC)?
**A.** Its TGI is 32.3 µM.

**Q.** What about the TGI (M14 melanoma) of the same compound?
**A.** Its TGI is 32.1 µM.

**Q.** What about the TGI (SF-539 CNS) of the same compound?
**A.** The TGI was 30.9 µM.

**Q.** And the TGI (EKVX NSCLC)?
**A.** Its TGI is 36.6 µM.

**Q.** And the TGI (DMS 114 small cell lung)?
**A.** The TGI was 17.9 µM.

**Q.** And the TGI (SK-MEL-28 melanoma)?
**A.** Its TGI is 37.9 µM.

**Q.** What about the TGI (RXF 393 renal) of the same compound?
**A.** Its TGI is 25.7 µM.

**Q.** What about the TGI (HL-60(TB) leukemia) of the same compound?
**A.** Its TGI is 27.9 µM.

**Q.** What about the TGI (NCI-H23 lung) of the same compound?
**A.** The TGI was 34 µM.

**Q.** What about the TGI (U251 CNS) of the same compound?
**A.** The TGI was 29.5 µM.

**Q.** And the TGI (M19-MEL melanoma)?
**A.** Its TGI is 32.7 µM.

**Q.** What about the TGI (MALME-3M melanoma) of the same compound?
**A.** Its TGI is 29.5 µM.

**Q.** What about the TGI (UO-31 renal) of the same compound?
**A.** Its TGI is 17.8 µM.

**Q.** What about the TGI (HOP-92 NSCLC) of the same compound?
**A.** Its TGI is 20.1 µM.

**Q.** And the TGI (XF 498 CNS)?
**A.** The TGI was 30.6 µM.

**Q.** And the TGI (LXFL 529 NSCLC)?
**A.** Its TGI is 28.2 µM.

**Q.** And the TGI (A549 NSCLC)?
**A.** Its TGI is 35 µM.

**Q.** What about the TGI (DLD-1 colon) of the same compound?
**A.** Its TGI is 28.9 µM.

**Q.** What about the TGI (SNB-19 CNS) of the same compound?
**A.** The TGI was 69.8 µM.

**Q.** And the TGI (HCT-116 colon)?
**A.** Its TGI is 29.3 µM.

**Q.** And the TGI (UACC-257 melanoma)?
**A.** The TGI was 32.5 µM.

**Q.** What about the TGI (TK-10 renal) of the same compound?
**A.** The TGI was 34.5 µM.

**Q.** What about the TGI (SK-MEL-5 melanoma) of the same compound?
**A.** The TGI was 31 µM.

**Q.** And the TGI (HOP-62 NSCLC)?
**A.** Its TGI is 31.9 µM.

**Q.** Which results are given for `Clc1ccc2cccc3c2c1C1OC3c2ccccc21` (stereo not drawn)?
**A.** TGI (KM20L2 colon): > 100 µM; TGI (SK-MEL-2 melanoma): > 100 µM; TGI (HT29 colon): > 100 µM; TGI (NCI-H226 lung): > 100 µM; TGI (SR leukemia): > 100 µM; TGI (SF-268 CNS): > 100 µM; TGI (RPMI-8226 leukemia): > 100 µM; TGI (IGROV1 ovarian): > 100 µM; TGI (CCRF-CEM leukemia): > 100 µM; TGI (A498 renal): > 100 µM; TGI (K-562 leukemia): > 100 µM; TGI (HCC-2998 colon): > 100 µM; TGI (DMS 273 small cell lung): > 100 µM; TGI (SNB-75 CNS): > 100 µM; TGI (UACC-62 melanoma): > 100 µM; TGI (SK-OV-3 ovarian): > 100 µM; TGI (OVCAR-8 ovarian): > 100 µM; TGI (COLO 205 colon): > 100 µM; TGI (ACHN renal): > 100 µM; TGI (SW-620 colon): > 100 µM; TGI (SN12C renal): > 100 µM; TGI (786-0 renal): > 100 µM; TGI (NCI-H522 lung): > 100 µM; TGI (MOLT-4 leukemia): > 100 µM; TGI (OVCAR-5 ovarian): > 100 µM; TGI (KM12 colon): > 100 µM; TGI (SF-295 CNS): > 100 µM; TGI (OVCAR-3 ovarian): > 100 µM; TGI (LOX IMVI melanoma): > 100 µM; TGI (SNB-78 CNS): > 100 µM; TGI (HOP-18 NSCLC): > 100 µM; TGI (M14 melanoma): > 100 µM; TGI (SF-539 CNS): > 100 µM; TGI (EKVX NSCLC): > 100 µM; TGI (DMS 114 small cell lung): > 100 µM; TGI (SK-MEL-28 melanoma): > 100 µM; TGI (RXF 393 renal): > 100 µM; TGI (HL-60(TB) leukemia): > 100 µM; TGI (NCI-H23 lung): > 100 µM; TGI (U251 CNS): > 100 µM; TGI (M19-MEL melanoma): > 100 µM; TGI (MALME-3M melanoma): > 100 µM; TGI (UO-31 renal): > 100 µM; TGI (HOP-92 NSCLC): > 100 µM; TGI (XF 498 CNS): > 100 µM; TGI (LXFL 529 NSCLC): > 100 µM; TGI (A549 NSCLC): > 100 µM; TGI (DLD-1 colon): > 100 µM; TGI (SNB-19 CNS): > 100 µM; TGI (HCT-116 colon): > 100 µM; TGI (UACC-257 melanoma): > 100 µM; TGI (TK-10 renal): > 100 µM; TGI (HOP-62 NSCLC): > 100 µM
